System: monocrotaline reversal model of pulmonary hypertension
Experiment: monocrotaline reversal model of pulmonary hypertension
Type: in vivo
Conditions: 3 mg/kg orally once daily from days 21-42; also dosed at 0.3 and 1 mg/kg
Method: The compound of formula II, namely 4-[8-(3-Fluorophenyl)-[1,7]naphthyridin-6-yl]-cyclohexanecarboxylic acid and being a representative example of compounds of formula I, is tested in the monocrotaline reversal model of pulmonary hypertension that is described by Schermuly et al in The Journal of Clinical Investigation 2005 October; 115(10):2811-21. The disclosure of that article is incorporated herein by way of reference.
4-[8-(3-Fluorophenyl)-[1,7]-naphthyridin-6-yl]-cyclohexanecarboxylic acid is dosed orally to the animals once daily from days 21-42 of the experiment at 0.3, 1 and 3 mg/kg.

O=C(O)C1CCC(c2cc3cccnc3c(-c3cccc(F)c3)n2)CC1 (stereo not shown) [4-[8-(3-Fluorophenyl)-[1,7]naphthyridin-6-yl]-cyclohexanecarboxylic acid]
shows efficacy: medial wall thickness | mortality | reversal of RV (right ventricular) pressure | reversal of RV hypertrophy

Source: patent US20090023769A1, “Organic Compounds” (NOVARTIS AG, priority 2006, published 2009)
